Where a name gives a salt, the structure may show the parent alone. Read-outs that look alike come from different tables or passages of the source.
Tests used:
BRD4 BD2 = target: T1, BRD4 BD2 (Homo sapiens, UniProt O60885, Y97A); test: BRD4 BD2 mutant TR-FRET competition assay; type: binding
T1 construct: BRD4 (1-477) (Y97A) and (Y390A); made in house; host or cells: E. coli (pET15b vector)

[1] = test system: BET family (BRD2, BRD3, BRD4 and BRDT) tandem bromodomain proteins; test: Fluorescence Polarisation binding of Reference Compound X to single and double mutant tandem BET proteins; design: species or system Human
Protocol: The competition of the compounds of formula (I) with Reference Compound X for binding to the BET family (BRD2, BRD3, BRD4 and BRDT) was assessed using protein truncates spanning both bromodomain 1 (BD1) and bromodomain 2 (BD2). In order to monitor differential binding to either BD1 or BD2, single residue mutations of key tyrosines to alanine were made in the acetyl lysine binding pockets. To validate this approach, a double residue mutant tandem domain protein was produced for each of the BET family members. Utilising a Fluorescence Polarisation approach, binding affinities for each of the single and double mutants for Reference Compound X were determined. […] The affinities of the single mutated bromdomain tandem proteins for Reference Compound X were equi-potent with the corresponding non-mutated BET protein. […] In the TR-FRET competition assay, Reference Compound X is used at a concentration that is equivalent to the Kd for the non-mutated bromodomain, which ensures that no binding at the mutated bromodomain is detected. […]

[2] = read-out: pIC50 in the BRD4 BD2 assay (converted)

Row | IC50 (BRD4 BD2; [2]) [nM] | Structure (SMILES) | further results
1 | 100 to 1000 | CNC(=O)c1cc(C(=O)NCCOC2CCNCC2)cn(Cc2ccccc2)c1=O [Example 89, 1-benzyl-N^3-methyl-2-oxo-N^5-(2-(piperidin-4-yloxy)ethyl)-1,2-dihydropyridine-3,5-dicarboxamide hydrochloride] | 
2 | 100 to 1000 | CNC(=O)c1cc(C(=O)NC2CN(S(C)(=O)=O)C2)cn(Cc2ccccc2)c1=O [Example 90, 1-benzyl-N^3-methyl-N^5-(1-(methylsulfonyl)azetidin-3-yl)-2-oxo-1,2-dihydropyridine-3,5-dicarboxamide] | 
3 | 100 to 1000 | CNC(=O)c1cc(C(=O)NC2COC2)cn(Cc2ccccc2)c1=O [Example 91, 1-benzyl-N^3-methyl-N^5-(oxetan-3-yl)-2-oxo-1,2-dihydropyridine-3,5-dicarboxamide] | 

Further lines, the compound ahead of its results:

Row | Structure (SMILES) | IC50 (BRD4 BD2; [2]) [nM] | further results
4 | CNC(=O)c1cc(C(=O)N[C@H]2[C@@H]3CN(CCNC(=O)OC(C)(C)C)C[C@@H]32)cn(Cc2cccc3[nH]ccc23)c1=O [Example 85, tert-Butyl (2-((1R,5S,6s)-6-(1-((1H-indol-4-yl)methyl)-5-(methylcarbamoyl)-6-oxo-1,6-dihydropyridine-3-carboxamido)-3-azabicyclo[3.1.0]hexan-3-yl)ethyl)carbamate] | ≤ 100 | 
5 | CNC(=O)c1cc(C(=O)N[C@H]2[C@@H]3CN(CCN)C[C@@H]32)cn(Cc2cccc3[nH]ccc23)c1=O [Example 86, 1-((1H-Indol-4-yl)methyl)-N^5-((1R,5S,6s)-3-(2-aminoethyl)-3-azabicyclo[3.1.0]hexan-6-yl)-N^3-methyl-2-oxo-1,2-dihydropyridine-3,5-dicarboxamide] | ≤ 100 | 
6 | CNC(=O)c1cc(C(=O)N[C@H]2[C@@H]3CN(CCNC(C)=O)C[C@@H]32)cn(Cc2cccc3[nH]ccc23)c1=O [Example 87, 1-((1H-Indol-4-yl)methyl)-N^5-((1R,5S,6s)-3-(2-acetamidoethyl)-3-azabicyclo[3.1.0]hexan-6-yl)-N^3-methyl-2-oxo-1,2-dihydrouridine-3,5-dicarboxamide] | ≤ 100 | 
7 | CNC(=O)c1cc(C(=O)NCCC[C@H]2OC[C@H](N)CO2)cn(Cc2ccccc2)c1=O [Example 88, N^5-(3-((2r,5r)-5-Amino-1,3-dioxan-2-yl)propyl)-1-benzyl-N^3-methyl-2-oxo-1,2-dihydropyridine-3,5-dicarboxamide] | ≤ 100 | IC50 (BRD4 BD2; average of N recorded values, read-out: BRD4 BD2 IC50 (average value) (converted)): 50.1 nM
8 | COc1ccc2c(c1)C(c1ccc(Cl)cc1)=N[C@@H](CC(=O)NCCCCCNC(=O)CCCCCC1(C)/C(=C/C=C/C=C/C3=[N+](CCCCS(=O)(=O)O)c4ccc(S(=O)(=O)O)cc4C3(C)C)N(CCCCS(=O)(=O)[O-])c3ccc(S(=O)(=O)O)cc31)c1nnc(C)n1-2 (stereo partly shown) [Reference Compound X] |  | reduction in Kd ([1]; double mutant tandem proteins versus non mutated, wild type tandem BET proteins): > 1000 fold; reduction of the Kd of the interaction between the mutated bromodomain and Reference Compound X ([1]; single mutations of Tyrosine to Alanine): > 1000 fold

Reference: patent US10370356B2, “Pyridinone dicarboxamide for use as bromodomain inhibitors” (GlaxoSmithKline Intellectual Property (No. 2) Limited, priority 2015, dated 2019)
